Calls of active or inactive are those of the source. No cut-off for these calls is given here.
Key:
PC-3 = experiment: Antiproliferative activity against AR-deficient human PC3 cells assessed as reduction in cell viability after 24 hrs by CCK-8 assay; type: functional, cell-based; details: PC-3, 24 h
[1] = Antiproliferative activity against AR-rich human LNCaP-hr cells assessed as reduction in cell viability after 24 hrs by CCK-8 assay; type: functional
[2] = target: T1, Androgen receptor (Homo sapiens) (UniProt P10275); details: at 10 µM
T1 sequence (whole entry): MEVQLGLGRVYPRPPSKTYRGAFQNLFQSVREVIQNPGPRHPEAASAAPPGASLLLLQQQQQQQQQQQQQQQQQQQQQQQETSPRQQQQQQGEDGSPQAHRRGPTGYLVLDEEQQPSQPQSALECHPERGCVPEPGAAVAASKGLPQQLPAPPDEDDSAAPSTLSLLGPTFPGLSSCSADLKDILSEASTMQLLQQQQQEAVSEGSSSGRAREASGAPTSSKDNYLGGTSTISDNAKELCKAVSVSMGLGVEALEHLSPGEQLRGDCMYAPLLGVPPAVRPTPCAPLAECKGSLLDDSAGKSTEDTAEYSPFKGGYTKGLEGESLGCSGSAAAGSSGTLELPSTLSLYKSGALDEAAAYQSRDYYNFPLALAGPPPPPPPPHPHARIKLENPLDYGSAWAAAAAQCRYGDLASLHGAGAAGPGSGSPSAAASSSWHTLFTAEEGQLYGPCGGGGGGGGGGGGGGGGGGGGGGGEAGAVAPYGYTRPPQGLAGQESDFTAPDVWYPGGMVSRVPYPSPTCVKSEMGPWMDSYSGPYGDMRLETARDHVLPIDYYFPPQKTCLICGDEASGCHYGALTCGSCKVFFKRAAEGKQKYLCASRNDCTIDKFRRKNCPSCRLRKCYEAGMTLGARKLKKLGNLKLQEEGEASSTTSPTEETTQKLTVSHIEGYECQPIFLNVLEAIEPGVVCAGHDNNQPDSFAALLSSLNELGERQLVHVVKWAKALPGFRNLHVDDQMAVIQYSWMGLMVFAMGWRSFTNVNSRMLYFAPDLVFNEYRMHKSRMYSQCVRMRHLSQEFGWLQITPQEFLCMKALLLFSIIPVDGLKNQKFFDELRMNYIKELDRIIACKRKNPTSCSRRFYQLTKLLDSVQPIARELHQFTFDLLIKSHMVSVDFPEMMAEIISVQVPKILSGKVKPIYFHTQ

Androgen receptor = target: T2, Androgen receptor (Rattus norvegicus, UniProt P15207); experiment: Displacement of fluormone-AL Green from His-tagged/GST-fused recombinant rat androgen receptor LBD expressed in insect cells measured after 4 hrs by fluorescence polarization assay
T2 sequence (P15207 whole entry): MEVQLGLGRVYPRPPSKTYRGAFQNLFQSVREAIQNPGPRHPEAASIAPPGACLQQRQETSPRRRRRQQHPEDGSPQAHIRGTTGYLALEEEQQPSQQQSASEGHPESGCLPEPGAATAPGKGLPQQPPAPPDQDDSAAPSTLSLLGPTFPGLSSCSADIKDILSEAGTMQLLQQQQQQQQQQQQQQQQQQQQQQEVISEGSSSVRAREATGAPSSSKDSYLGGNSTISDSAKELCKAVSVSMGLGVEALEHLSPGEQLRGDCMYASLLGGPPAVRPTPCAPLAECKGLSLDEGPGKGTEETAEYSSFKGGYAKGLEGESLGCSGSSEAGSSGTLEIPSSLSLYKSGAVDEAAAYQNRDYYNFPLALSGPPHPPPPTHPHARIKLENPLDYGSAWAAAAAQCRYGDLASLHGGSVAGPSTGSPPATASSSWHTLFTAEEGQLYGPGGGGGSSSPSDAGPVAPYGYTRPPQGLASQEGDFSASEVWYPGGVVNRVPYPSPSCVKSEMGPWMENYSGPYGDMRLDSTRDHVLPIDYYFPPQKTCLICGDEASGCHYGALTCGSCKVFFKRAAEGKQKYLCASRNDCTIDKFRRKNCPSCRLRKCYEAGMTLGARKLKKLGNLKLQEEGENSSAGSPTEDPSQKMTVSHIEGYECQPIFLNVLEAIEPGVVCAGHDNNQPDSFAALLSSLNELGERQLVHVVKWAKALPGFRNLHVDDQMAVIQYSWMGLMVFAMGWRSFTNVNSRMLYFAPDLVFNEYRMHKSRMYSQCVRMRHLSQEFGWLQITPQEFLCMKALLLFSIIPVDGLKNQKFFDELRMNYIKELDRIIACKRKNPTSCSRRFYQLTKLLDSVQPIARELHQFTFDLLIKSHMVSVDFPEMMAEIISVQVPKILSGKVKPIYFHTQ

Question: With `O=c1cc(N2CCN(c3ccc(Cl)cc3)CC2)c2ccc3ccccc3c2o1` as the compound, how does the IC50 (PC-3) read?
Answer: Its IC50 is greater than 200 µM.

Question: And the IC50 [1]?
Answer: The IC50 was 1.3 µM.

Question: And the inhibition [2]?
Answer: The inhibition was 53.7%.

Question: And the IC50 (Androgen receptor)?
Answer: The IC50 was 2.56 µM.

Question: What does the source list for `O=c1cc(N2CCN(c3ccc(F)cc3F)CC2)c2ccc3ccccc3c2o1`?
Answer: IC50 (PC-3): 122 µM; IC50 [1]: > 50 µM; inhibition [2]: 45.1%

Question: Which results are given for `O=c1cc(N2CCN(c3cccc(Cl)c3)CC2)c2ccc3ccccc3c2o1`?
Answer: IC50 (PC-3): 165 µM; IC50 [1]: 2.9 µM; inhibition [2]: 40.1%

Question: What does the source list for `O=c1cc(N2CCN(c3ccccc3)CC2)c2ccc3ccccc3c2o1`?
Answer: IC50 (PC-3): > 200 µM; IC50 [1]: 5.05 µM; inhibition [2]: 51.2%; IC50 (Androgen receptor): 3.94 µM

Question: Which results are given for `O=c1cc(N2CCN(c3ccccc3F)CC2)c2ccc3ccccc3c2o1`?
Answer: IC50 (PC-3): 124 µM; IC50 [1]: 1.89 µM; inhibition [2]: 52.3%; IC50 (Androgen receptor): 3.72 µM

Question: With `N#Cc1ccc(N2CCN(c3cc(=O)oc4c3ccc3ccccc34)CC2)c(F)c1` as the compound, how does the IC50 (PC-3) read?
Answer: Its IC50 is greater than 200 µM.

Question: And the IC50 [1]?
Answer: The IC50 was 37.8 µM.

Question: And the inhibition [2]?
Answer: Its inhibition is 30.2%.

Question: Which IC50 (PC-3) does the source give for `O=c1cc(N2CCN(c3ccc(Br)cc3)CC2)c2ccc3ccccc3c2o1` here?
Answer: The IC50 was greater than 200 µM.

Question: And the IC50 [1]?
Answer: The IC50 was greater than 50 µM.

Question: What about the inhibition [2] of the same compound?
Answer: The inhibition was 25.1%.

Question: With `O=c1cc(N2CCN(Cc3ccccc3)CC2)c2ccc3ccccc3c2o1` as the compound, how does the IC50 (PC-3) read?
Answer: The IC50 was greater than 200 µM.

Question: What about the IC50 [1] of the same compound?
Answer: Its IC50 is 0.52 µM.

Question: What about the inhibition [2] of the same compound?
Answer: The inhibition was 72.1%.

Question: What about the IC50 (Androgen receptor) of the same compound?
Answer: Its IC50 is 0.55 µM.

Question: Which results are given for `O=c1cc(N2CCN(c3ccc(C(F)(F)F)cc3)CC2)c2ccc3ccccc3c2o1`?
Answer: IC50 (PC-3): > 200 µM; IC50 [1]: 12.3 µM; inhibition [2]: 20.7%

Question: With `COc1cccc(N2CCN(c3cc(=O)oc4c3ccc3ccccc34)CC2)c1` as the compound, how does the IC50 (PC-3) read?
Answer: The IC50 was greater than 200 µM.

Question: What about the IC50 [1] of the same compound?
Answer: Its IC50 is 13.3 µM.

Question: What about the inhibition [2] of the same compound?
Answer: The inhibition was 41.2%.

Question: For `Cc1cccc(N2CCN(c3cc(=O)oc4c3ccc3ccccc34)CC2)c1`, which IC50 (PC-3) is on record?
Answer: The IC50 was 54.1 µM.

Question: What about the IC50 [1] of the same compound?
Answer: Its IC50 is 32.5 µM.

Question: And the inhibition [2]?
Answer: Its inhibition is 45.5%.

Question: Which IC50 (PC-3) does the source give for `COc1ccccc1N1CCN(c2cc(=O)oc3c2ccc2ccccc23)CC1` here?
Answer: The IC50 was greater than 200 µM.

Question: What about the IC50 [1] of the same compound?
Answer: The IC50 was 1.7 µM.

Question: What about the inhibition [2] of the same compound?
Answer: Its inhibition is 61.2%.

Question: What about the IC50 (Androgen receptor) of the same compound?
Answer: The IC50 was 1.26 µM.

Question: Which results are given for `Cc1ccccc1N1CCN(c2cc(=O)oc3c2ccc2ccccc23)CC1`?
Answer: IC50 (PC-3): 109 µM; IC50 [1]: 4.43 µM; inhibition [2]: 53.1%; IC50 (Androgen receptor): 3.54 µM

Question: With `O=c1cc(N2CCN(c3ccccc3Cl)CC2)c2ccc3ccccc3c2o1` as the compound, how does the IC50 (PC-3) read?
Answer: Its IC50 is greater than 200 µM.

Question: And the IC50 [1]?
Answer: The IC50 was 9.69 µM.

Question: And the inhibition [2]?
Answer: The inhibition was 51.2%.

Question: And the IC50 (Androgen receptor)?
Answer: The IC50 was 3.87 µM.

Question: Which IC50 [1] does the source give for `CC(C)(C)NC(=O)[C@H]1CC[C@H]2[C@@H]3CC[C@H]4NC(=O)C=C[C@]4(C)[C@H]3CC[C@]12C` [FINASTERIDE] here?
Answer: Its IC50 is 14.5 µM.

Question: Which IC50 (PC-3) does the source give for `CCOc1ccccc1N1CCN(c2cc(=O)oc3c2ccc2ccccc23)CC1` here?
Answer: The IC50 was greater than 200 µM.

Question: And the IC50 [1]?
Answer: Its IC50 is 1.43 µM.

Question: And the inhibition [2]?
Answer: The inhibition was 58.5%.

Question: And the IC50 (Androgen receptor)?
Answer: The IC50 was 2.08 µM.

Question: Which IC50 (PC-3) does the source give for `Cc1ccc(N2CCN(c3cc(=O)oc4c3ccc3ccccc34)CC2)cc1` here?
Answer: The IC50 was 136 µM.

Question: What about the IC50 [1] of the same compound?
Answer: The IC50 was 7.7 µM.

Question: What about the inhibition [2] of the same compound?
Answer: The inhibition was 53.3%.

Question: And the IC50 (Androgen receptor)?
Answer: The IC50 was 3.02 µM.

Question: Which IC50 (PC-3) does the source give for `O=c1cc(N2CCN(c3ccc(F)cc3)CC2)c2ccc3ccccc3c2o1` here?
Answer: The IC50 was greater than 200 µM.

Question: And the IC50 [1]?
Answer: The IC50 was 19.3 µM.

Question: And the inhibition [2]?
Answer: Its inhibition is 43.5%.

Question: Which results are given for `COc1ccc(N2CCN(c3cc(=O)oc4c3ccc3ccccc34)CC2)cc1`?
Answer: IC50 (PC-3): 117 µM; IC50 [1]: 5.6 µM; inhibition [2]: 59.1%; IC50 (Androgen receptor): 1.56 µM

Question: For `O=c1cc(N2CCN(c3ccccc3C(F)(F)F)CC2)c2ccc3ccccc3c2o1`, which IC50 (PC-3) is on record?
Answer: The IC50 was 108 µM.

Question: What about the IC50 [1] of the same compound?
Answer: The IC50 was 1.14 µM.

Question: What about the inhibition [2] of the same compound?
Answer: Its inhibition is 65.4%.

Question: What about the IC50 (Androgen receptor) of the same compound?
Answer: The IC50 was 1.04 µM.

Question: Which results are given for `O=c1cc(N2CCN(c3ccccn3)CC2)c2ccc3ccccc3c2o1`?
Answer: IC50 (PC-3): 150 µM; IC50 [1]: 1.92 µM; inhibition [2]: 54.5%; IC50 (Androgen receptor): 2.21 µM

Question: With `C[C@]1(O)CC[C@H]2[C@@H]3CCC4=CC(=O)CCC4=C3C=C[C@@]21C` as the compound, how does the inhibition [2] read?
Answer: The inhibition was “inactive”.

Question: With `Cc1ccc(Cl)cc1N1CCN(c2cc(=O)oc3c2ccc2ccccc23)CC1` as the compound, how does the IC50 (PC-3) read?
Answer: Its IC50 is greater than 200 µM.

Question: And the IC50 [1]?
Answer: Its IC50 is 15.3 µM.

Question: What about the inhibition [2] of the same compound?
Answer: The inhibition was 48.3%.

Question: What does the source list for `O=c1cc(N2CCN(C(c3ccc(F)cc3)c3ccc(F)cc3)CC2)c2ccc3ccccc3c2o1`?
Answer: IC50 (PC-3): > 200 µM; IC50 [1]: 1.02 µM; inhibition [2]: 70.3%; IC50 (Androgen receptor): 0.85 µM

Reference: ChEMBL document CHEMBL4396966, “Synthesis, biological evaluation and molecular docking of 4-Amino-2H-benzo[h]chromen-2-one (ABO) analogs containing the piperazine moiety” (Bioorg Med Chem, 2019)
